Experiment [1] relates to MEFs. Kind of experiment: RNA-seq gene expression. In kind it is cell-based, mouse. Conditions: RNA-seq. From the text: RNA-seq. Sequencing results were demultiplexed and converted to FASTQ format using Illumina bcl2fastq software. The sequencing reads were adapter and quality trimmed with Trimmomatic and then aligned to the mouse genome (build mm10/GRCm38) using the splice-aware STAR aligner. The featureCounts program was utilized to generate counts for each gene based on how many aligned reads overlap its exons. These counts were then normalized and used to test for differential expression using negative binomial generalized linear models implemented by the DESeq2 R package.

Experiment [2] relates to MEFs. Kind of experiment: Metabolomics (TCA cycle carboxylic acids, NAD, NADH). It counts as cell-based, mouse. The protocol:
Metabolomics. […] Cells were harvested using a cell scraper and centrifuged at 1200 rpm in 4° C. for 3 min. Each cell pellet sample was suspended into 250 to 700 μL of 80% aqueous methanol in an Eppendorf tube. The samples were vortex mixed for 15 s and sonicated in an ice-water bath for 5 min, followed by centrifugal clarification at 15,000 rpm and 5° C. in an Eppendorf […] centrifuge. The clear supernatants were collected. A standard stock solution of TCA cycle carboxylic acids, NAD and NADH was prepared in 80% methanol as S1. This standard solution S1 was serially diluted 1 to 4 (v/v) with the same solvent to make standard solutions S2 to S10. 20 μL of each standard solution and an aliquot of the clear supernatant from each cell was mixed with 20 μL of an internal standard solution containing 9 ^13C- or deuterium labeled analogues of the TCA cycle carboxylic acids (except isocitric acid), 20 μL of 200 mM 3-NPH solution and 20 μL of 150 mM of EDC solution. The mixtures were allowed to react at 30° C. for 30 min. After reaction, 120 μL of water was added to each solution. 10 μL of the resultant solutions was injected into a C18 UPLC column to quantitate the TCA cycle carboxylic acids by UPLC-MRM/MS with (-) ion detection, according to the procedure we described in a publication.

Experiment [3] deals with mitochondrial biogenesis markers. The experiment in a line: Mitochondrial biogenesis markers by q-PCR. In kind it is cell-based. The protocol:
Analysis of mitochondrial biogenesis-related genes by q-PCR. Total RNA was extracted by using RNeasy Mini Kit (Qiagen) followed by cDNA synthesis using the SuperScript IV VILO Master Mix (Thermo Scientific), both performed according to the manufacturer's protocol. q-PCR was performed using the following primers: For the q-PCR reaction, Power SYBR Green master mix (Thermo Scientific) was used according to the manufacturer's instructions. […] Rpl39 was used as housekeeping gene and 2^−ΔΔCT method was applied to determine the relative mRNAs expression.

The test system of experiment [4] is MEFs. The experiment in a line: DNA damage, yH2AX immunofluorescence in MEFs. It counts as cell-based, mouse. The following applies: 6 h. Here is the method: Immunofluorescent analysis and microscopy. […] After treatments, cells were washed with PBS and fixed with 4% PFA for 15 min. […] After incubation with primary antibodies, cells were washed with PBS and incubated with the appropriate mouse secondary antibody (ThermoFisher Scientific; A-11001) in the blocking solution. After PBS washes, coverslips were dipped in water and mounted on glass slides using Vectashield containing DAPI (Vector laboratories). […] Data were analyzed with ImageJ.

Another experiment concerns mitochondrial biomass. Kind of experiment: Mitochondrial biomass (Tomm20 protein, mitotracker green intensity, mitochondrial to nuclear DNA ratio). It counts as cell-based. Here is the method: Western blot. Western blots were performed from whole cell lysates (WCL) prepared in lysis buffer containing 50 mM Tris-HCl pH 7.5, 1% Triton X-100, 150 mM NaCl, 5 mM MgCl2, 1 mM EGTA and 10% glycerol in the presence of protease inhibitor cocktail (Roche). WCL were separated on a 4-12% NuPAGE MES gel (Invitrogen), transferred into a PVDF membrane, block for 1 hr and immunoblot with the corresponding anti-bodies. Determination of mtDNA to genomic DNA ratio by q-PCR. DNA was extracted using DNeasy Blood and Tissue kit (Qiagen) according to the manufacturer's protocol. q-PCR was used to determine the ratio of mitochondrial DNA (mtDNA) and genomic DNA (gn DNA). The following primers were used for q-PCR reaction: […]

Experiment [5] has as its system MEFs. The experiment in a line: Mitochondrial depolarization assay (TMRE membrane potential). In kind it is cell-based, mouse. Here is the method:
Mitochondrial depolarization assay (mtΔΨ). MEFs (10^4 cells/well) were seeded in a 96-well black plate and treated with MASM7 or MFI8 for 6 hrs. Following treatments, cells were stained with 250 nM TMRE (Sigma; Cat. 87917) for 20 min at 37° C. Subsequently, cells were washed with thrice with PBS. Fluorescence intensity was detected by a M100 microplate reader (TECAN, Ex: 540 nm/Em: 579 nm).

The test system of experiment [6] is MEFs. The experiment in a line: Mitochondrial aspect ratio (Mito AR), live cell imaging.
Experimental: Live cell imaging. MEFs were seeded on chamber slides (MatTek Corporation: 35 mm dishes, No. 1.5, 14 mm glass diameter) at ˜70% confluence. […] Images were taken with Leica SP5 inverted confocal microscope. Data were analyzed with Image J software. >200 mitochondria were measured per condition in mitochondrial aspect ratio.
Measurement of mitochondrial aspect ratio (Mito AR). Images that depict stained mitochondria with mitotracker green were analyzed using FIJI We measured for each mitochondrion its length and width. Then, we divided the length by the width for each mitochondrion to get its mitochondrial aspect ratio. >200 mitochondria were measured per treatment.
The test system of the next experiment is MFN1 and MFN2. Kind of experiment: MFN1 and MFN2 gene expression and protein levels. In kind it is cell-based. The protocol:
Western blot. Western blots were performed from whole cell lysates (WCL) prepared in lysis buffer containing 50 mM Tris-HCl pH 7.5, 1% Triton X-100, 150 mM NaCl, 5 mM MgCl2, 1 mM EGTA and 10% glycerol in the presence of protease inhibitor cocktail (Roche).
Analysis of mitochondrial biogenesis-related genes by q-PCR. Total RNA was extracted by using RNeasy Mini Kit (Qiagen) followed by cDNA synthesis using the SuperScript IV VILO Master Mix (Thermo Scientific), both performed according to the manufacturer's protocol. q-PCR was performed using the following primers: […]
For the q-PCR reaction, Power SYBR Green master mix (Thermo Scientific) was used according to the manufacturer's instructions. Briefly, each reaction consisted of 10 ng cDNA, 5 μL Power SYBR Green master mix, 200 nM primers (forward and reverse), and RNase-free water up to 10 μL. q-PCR was performed on the ViiA 7 Real-Time PCR System (Thermo Scientific) with the following cycle parameter: 95° C. for 10 min, 40 cycles of 95° C. for 15 s, and 60° C. for 1 min. q-PCR products were analyzed by melting curves for unspecific products or primer dimer formation. Rpl39 was used as housekeeping gene and 2^−ΔΔCT method was applied to determine the relative mRNAs expression.

For experiment [7], the system named is MEFs. Kind of experiment: Mitochondrial respiration in cellulo (OCR, Seahorse XF24). In kind it is cell-based, mouse. The following applies: WT MEFs; MASM7 1 μM or MFI8 20 μM, 6 hrs. The protocol:
Mitochondrial respiration in cellulo. Mitochondrial oxygen consumption rates (OCR) were assessed using a XF24 Analyzer (Seahorse Biosciences, Billerica MA, USA). In brief, 3×10^4 MEFs were cultured in a XF24 cell culture microplate containing DMEM supplemented with 10% fetal bovine serum. […] OCR was normalized to cell number or total protein content per well for each condition tested.

Experiment [8] concerns MEFs. Kind of experiment: Caspase-3/7 activation assay. Conditions: 6 hr, Caspase-Glo 3/7. In kind it is cell-based, mouse. Here is the method: Caspase-3/7 activation assay. Cells (5×10^3 cells/well) were seeded in a 96-well white plate and treated with MASM7, MFI8. Caspase 3/7 activation was measured after 6 hr by addition of the Caspase-Glo 3/7 reagent according to the manufacturer's protocol (Promega). Luminescence was detected by a F200 PRO microplate reader (TECAN). Caspase assays were performed in at least triplicate and the data normalized to vehicle-treated control wells. Dilutions of MASM7 or MFI8 were performed using a TECAN D300e Digital Dispenser from 10 mM stocks.

The subject of another experiment is cells. Kind of experiment: Cell viability assay (CellTiter-Glo). In kind it is cell-based. The following applies: 72 hours. The protocol: Cell viability assay. […] Cell viability was assayed after 72 hrs by addition of CellTiter-Glo reagent according to the manufacturer's protocol (Promega). Luminescence was measured using a […] microplate reader (TECAN). Viability assays were performed in at least triplicate and the data normalized to vehicle-treated control wells.
A general note: In ATP-based viability assays light output follows the ATP content of the culture.

Setting [9] is: MFN1/MFN2 DKO MEFs reconstituted with WT MFN2.

Each structure is given as a SMILES string.

On to `CC(Sc1nnc(C2CC2)n1-c1ccccc1)C(=O)Nc1sc2c(c1C(N)=O)CCC2` (stereo not shown) [MASM7, 2-(2-((5-cyclopropyl-4-phenyl-4H-1,2,4-triazol-3-yl)thio)propanamido)-5,6-dihydro-4H-cyclopenta[b]thiophene-3-carboxamide], for which, in the experiment with MEFs [1], the “gene expression of subunits of the respiratory complexes” value is “altered expression of selected genes of the respiratory complexes rather than inducing a consistent trend”. In the experiment on MEFs [2], the “total NAD+/NADH ratio” value is given as “no effect on total NAD^+/NADH ratio”. In addition, the “metabolites of the TCA cycle” value with MEFs [2] (UPLC-MRM/MS) was “no significant effect in the majority of the metabolites of the TCA cycle”. Also, in [3], the “gene expression levels of mitochondrial biogenesis markers” value is reported as “no alteration”. The “DNA damage (yH2AX foci)” value in the experiment on MEFs [4] (MFN1/MFN2 DKO MEFs) and in the experiment with MEFs [4] (WT MEFs) was “did not induce DNA damage in any of the cell lines” in each case. Moreover, the “Tomm20 protein levels, mitotracker green intensity and mitochondrial to nuclear DNA ratio” value in the experiment on mitochondrial biomass is “neither MASM7 nor MFI8 altered”. Also, the “mitochondrial membrane potential (TMRE)” value is recorded as “significantly increased mitochondrial membrane potential” in the experiment with MEFs [5] (setting [9]) and “concentration responsively increased mitochondrial membrane potential” in the experiment on MEFs [5] (WT MEFs, 6 hrs). In the experiment on MEFs [5] (co-treated with myxothiazol or rotenone), the “compound-induced increase in mitochondrial membrane potential” value was “revoked”. Besides, the mitochondrial aspect ratio result in the experiment on MEFs [6] (MFN1/MFN2 DKO MEFs reconstituted with D725A/L727A or L727A MFN2 mutants) is reported as “not when reconstituted with D725A/L727A or L727A MFN2 mutants”; in the experiment with MEFs [6] (setting [9]), “markedly increased mitochondrial aspect ratio”. Further, the “MFN1 and MFN2 gene expression and corresponding protein levels” value in the experiment on MFN1 and MFN2 is “neither MASM7 nor MFI8 altered”. For the same molecule, the “respiration and mitochondrial ATP production (OCR)” value in the experiment with MEFs [7] was “increased basal and maximal respiration and mitochondrial ATP production”. The caspase-3/7 activity entry in the experiment on MEFs [8] is “no effect”. Besides, in the experiment with cells, the cellular viability result was “neither MFI8 nor MASM7 decreased cellular viability”.

Source of the values: US20240366540A1, “MITOFUSIN INHIBITORS AND USES THEREOF” (Albert Einstein College of Medicine, priority 2021, published 2024).
